Source: US20150105252A1, “SUBSTITUTED PYRAZOLES AS HERBICIDES” (E I DU PONT DE NEMOURS AND COMPANY, priority 2013, published 2015)

Key:
lambsquarters = assay: Test C preemergence; type: in vivo, Chenopodium album; conditions: for Lambsquarters plant response rating / Plant response rating, Lambsquarters: preemergence; for Plant response rating, Lambsquarters: 125 g ai/ha, scale 0 to 100, 0 = no effect, 100 = complete control
Outline: (§1)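 Visual rating, 0–100 scale (0 no effect, 100 complete control), vs untreated controls after 13–15 d greenhouse. Pre: seeds in loam/sand, treated at sowing. Post: plants in peat-based mix, 1- to 4-leaf (2–18 cm). Solvent + surfactant formulation, non-phytotoxic.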

blackgrass = assay: Test C postemergence; type: in vivo, Alopecurus myosuroides; conditions: for Plant response rating (scale of 0 to 100 where 0 is no effect and 100 is complete control), Blackgrass: Postemergence, 31 g ai/ha, visually evaluated after 13 to 15 days; for Blackgrass plant response rating / Plant response rating, Blackgrass: postemergence; for Blackgrass plant response rating: 62 g ai/ha, scale 0 to 100
Outline: as §1

ryegrass, Italian = assay: Test C postemergence; type: in vivo, Lolium multiflorum
Outline: as §1

wheat = assay: Test C postemergence; type: in vivo, Triticum aestivum; conditions: for Plant response rating, Wheat / Wheat plant response rating: postemergence; for Wheat plant response rating: scale 0 to 100
Outline: as §1

galium = assay: Test C postemergence; type: in vivo, Galium aparine; conditions: for Plant response rating (scale of 0 to 100 where 0 is no effect and 100 is complete control), Galium: Postemergence, 31 g ai/ha, visually evaluated after 13 to 15 days; for Galium plant response rating / Plant response rating, Galium: postemergence; for Galium plant response rating: 62 g ai/ha, scale 0 to 100
Outline: as §1

corn = assay: Test C postemergence; type: in vivo, Zea mays; conditions: for Plant response rating (scale of 0 to 100 where 0 is no effect and 100 is complete control), Corn: Postemergence, 31 g ai/ha, visually evaluated after 13 to 15 days; for Corn plant response rating / Plant response rating, Corn: postemergence; for Corn plant response rating: 62 g ai/ha, scale 0 to 100
Outline: as §1

crabgrass, large = assay: Test C postemergence; type: in vivo, Digitaria sanguinalis; conditions: for Plant response rating (scale of 0 to 100 where 0 is no effect and 100 is complete control), Crabgrass, Large: Postemergence, 31 g ai/ha, visually evaluated after 13 to 15 days; for Crabgrass, Large plant response rating / Plant response rating, Crabgrass, Large: postemergence; for Crabgrass, Large plant response rating: 62 g ai/ha, scale 0 to 100
Outline: as §1

foxtail, giant = assay: Test C postemergence; type: in vivo, Setaria faberii; conditions: for Plant response rating (scale of 0 to 100 where 0 is no effect and 100 is complete control), Foxtail, Giant: Postemergence, 31 g ai/ha, visually evaluated after 13 to 15 days; for Foxtail, Giant plant response rating / Plant response rating, Foxtail, Giant: postemergence; for Foxtail, Giant plant response rating: 62 g ai/ha, scale 0 to 100
Outline: as §1

morningglory = assay: Test C postemergence; type: in vivo, Ipomoea coccinea; conditions: for Plant response rating (scale of 0 to 100 where 0 is no effect and 100 is complete control), Morningglory: Postemergence, 31 g ai/ha, visually evaluated after 13 to 15 days; for Morningglory plant response rating / Plant response rating, Morningglory: postemergence; for Morningglory plant response rating: 62 g ai/ha, scale 0 to 100
Outline: as §1

ragweed = assay: Test C postemergence; type: in vivo, Ambrosia elation
Outline: as §1

soybean = assay: Test C postemergence; type: in vivo, Glycine max; conditions: for Plant response rating, Soybean / Soybean plant response rating: postemergence
Outline: as §1

barnyardgrass = assay: Test C postemergence; type: in vivo, Echinochloa crus-galli; conditions: for Plant response rating (scale of 0 to 100 where 0 is no effect and 100 is complete control), Barnyardgrass: Postemergence, 31 g ai/ha, visually evaluated after 13 to 15 days; for Barnyardgrass plant response rating / Plant response rating, Barnyardgrass: postemergence; for Barnyardgrass plant response rating: 62 g ai/ha, scale 0 to 100
Outline: as §1

waterhemp = assay: Test C postemergence; type: in vivo, Amaranthus rudis; conditions: for Plant response rating, Waterhemp / Waterhemp plant response rating: postemergence; for Waterhemp plant response rating: scale 0 to 100
Outline: as §1

chickweed = assay: Test C postemergence; type: in vivo, Stellaria media; conditions: for Plant response rating (scale of 0 to 100 where 0 is no effect and 100 is complete control), Chickweed: Postemergence, 31 g ai/ha, visually evaluated after 13 to 15 days; for Chickweed plant response rating / Plant response rating, Chickweed: postemergence; for Chickweed plant response rating: 62 g ai/ha, scale 0 to 100
Outline: as §1

[1] = 31 g ai/ha, visual rating, scale 0 to 100 (0 no effect, 100 complete control), 13 to 15 days
[2] = 62 g ai/ha, scale 0 to 100 (0 no effect, 100 complete control), 13 to 15 days
[3] = 250 g ai/ha, scale 0 to 100 (0 no effect, 100 complete control)
[4] = 125 g ai/ha, scale 0 to 100, 0 no effect, 100 complete control
[5] = postemergence, 250 g ai/ha, scale 0 to 100 (0 no effect, 100 complete control)
[6] = postemergence, 125 g ai/ha, scale 0 to 100, 0 no effect, 100 complete control
[7] = Postemergence, 31 g ai/ha, visually evaluated after 13 to 15 days
[8] = postemergence, 62 g ai/ha, scale 0 to 100

CCCc1cc(C(=O)NOCC)nn1Cc1ccnc(C(F)(F)F)c1 [Compound 185]
Lambsquarters plant response rating (lambsquarters; [1]): 98 | Lambsquarters plant response rating (lambsquarters; [2]): 98 | Plant response rating, Lambsquarters (lambsquarters; 13 to 15 days): 100 | Lambsquarters plant response rating (lambsquarters; 250 g ai/ha, scale 0 to 100, 0 is no effect, 100 is complete control): 100 | Plant response rating (scale of 0 to 100 where 0 is no effect and 100 is complete control), Blackgrass (blackgrass): 0 | Blackgrass plant response rating (blackgrass): 0 | Plant response rating, Blackgrass (blackgrass; [3]): 5 | Plant response rating, Blackgrass (blackgrass; [4]): 5 | Plant response rating, Ryegrass, Italian (ryegrass, Italian; [5]): 0 | Plant response rating, Ryegrass, Italian (ryegrass, Italian; [6]): 0 | Plant response rating, Wheat (wheat; [3]): 10 | Wheat plant response rating (wheat): 5 | Plant response rating (scale of 0 to 100 where 0 is no effect and 100 is complete control), Galium (galium): 40 | Galium plant response rating (galium): 40 | Plant response rating, Galium (galium; [3]): 70 | Plant response rating, Galium (galium; [4]): 45 | Plant response rating (scale of 0 to 100 where 0 is no effect and 100 is complete control), Corn (corn): 5 | Corn plant response rating (corn): 5 | Plant response rating, Corn (corn; [3]): 65 | Plant response rating, Corn (corn; [4]): 5 | Plant response rating (scale of 0 to 100 where 0 is no effect and 100 is complete control), Crabgrass, Large (crabgrass, large): 5 | Crabgrass, Large plant response rating (crabgrass, large): 5 | Plant response rating, Crabgrass, Large (crabgrass, large; [3]): 45 | Plant response rating, Crabgrass, Large (crabgrass, large; [4]): 5 | Plant response rating (scale of 0 to 100 where 0 is no effect and 100 is complete control), Foxtail, Giant (foxtail, giant): 5 | Foxtail, Giant plant response rating (foxtail, giant): 5 | Plant response rating, Foxtail, Giant (foxtail, giant; [3]): 5 | Plant response rating, Foxtail, Giant (foxtail, giant; [4]): 10 | Plant response rating (scale of 0 to 100 where 0 is no effect and 100 is complete control), Morningglory (morningglory): 40 | Morningglory plant response rating (morningglory): 45 | Plant response rating, Morningglory (morningglory; [3]): 75 | Plant response rating, Morningglory (morningglory; [4]): 85 | Plant response rating, Ragweed (ragweed; [5]): 30 | Plant response rating, Ragweed (ragweed; [6]): 40 | Plant response rating, Soybean (soybean; [3]): 50 | Soybean plant response rating (soybean; [4]): 40 | Plant response rating (scale of 0 to 100 where 0 is no effect and 100 is complete control), Barnyardgrass (barnyardgrass): 0 | Barnyardgrass plant response rating (barnyardgrass): 0 | Plant response rating, Barnyardgrass (barnyardgrass; [3]): 20 | Plant response rating, Barnyardgrass (barnyardgrass; [4]): 5 | Plant response rating, Waterhemp (waterhemp; [3]): 85 | Waterhemp plant response rating (waterhemp): 35 | Plant response rating (scale of 0 to 100 where 0 is no effect and 100 is complete control), Chickweed (chickweed): 70 | Chickweed plant response rating (chickweed): 80 | Plant response rating, Chickweed (chickweed; [3]): 85 | Plant response rating, Chickweed (chickweed; [4]): 85

CCNC(=O)c1cc(CC)n(Cc2ccnc(OC(F)F)c2)n1 [Compound 130]
Plant response rating (scale of 0 to 100), Lambsquarters (lambsquarters; Preemergence, 250 g ai/ha): 98 | Lambsquarters plant response rating (lambsquarters; [1]): 85 | Lambsquarters plant response rating (lambsquarters; [2]): 100 | Plant response rating, Lambsquarters (lambsquarters; 13 to 15 days): 100 | Plant response rating (scale of 0 to 100 where 0 is no effect and 100 is complete control), Blackgrass (blackgrass): 5 | Blackgrass plant response rating (blackgrass): 5 | Plant response rating, Blackgrass (blackgrass; [3]): 10 | Plant response rating, Blackgrass (blackgrass; [4]): 10 | Plant response rating (scale of 0 to 100 where 0 is no effect and 100 is complete control), Ryegrass, Italian (ryegrass, Italian; [7]): 5 | Ryegrass, Italian plant response rating (ryegrass, Italian; [8]): 5 | Plant response rating, Ryegrass, Italian (ryegrass, Italian; [5]): 15 | Plant response rating, Ryegrass, Italian (ryegrass, Italian; [6]): 10 | Plant response rating (scale of 0 to 100 where 0 is no effect and 100 is complete control), Wheat (wheat; [7]): 0 | Wheat plant response rating (wheat; 62 g ai/ha): 0 | Plant response rating, Wheat (wheat; [3]): 5 | Plant response rating, Wheat (wheat; [4]): 5 | Plant response rating (scale of 0 to 100 where 0 is no effect and 100 is complete control), Galium (galium): 60 | Galium plant response rating (galium): 65 | Plant response rating, Galium (galium; [3]): 75 | Plant response rating, Galium (galium; [4]): 65 | Plant response rating (scale of 0 to 100 where 0 is no effect and 100 is complete control), Corn (corn): 5 | Corn plant response rating (corn): 5 | Plant response rating, Corn (corn; [3]): 25 | Plant response rating, Corn (corn; [4]): 5 | Plant response rating (scale of 0 to 100 where 0 is no effect and 100 is complete control), Crabgrass, Large (crabgrass, large): 5 | Crabgrass, Large plant response rating (crabgrass, large): 5 | Plant response rating, Crabgrass, Large (crabgrass, large; [3]): 25 | Plant response rating, Crabgrass, Large (crabgrass, large; [4]): 10 | Plant response rating (scale of 0 to 100 where 0 is no effect and 100 is complete control), Foxtail, Giant (foxtail, giant): 40 | Foxtail, Giant plant response rating (foxtail, giant): 15 | Plant response rating, Foxtail, Giant (foxtail, giant; [3]): 55 | Plant response rating, Foxtail, Giant (foxtail, giant; [4]): 20 | Plant response rating (scale of 0 to 100 where 0 is no effect and 100 is complete control), Morningglory (morningglory): 35 | Morningglory plant response rating (morningglory): 75 | Plant response rating, Morningglory (morningglory; [3]): 98 | Plant response rating, Morningglory (morningglory; [4]): 85 | Plant response rating (scale of 0 to 100 where 0 is no effect and 100 is complete control), Ragweed (ragweed; [7]): 30 | Ragweed plant response rating (ragweed; [8]): 35 | Plant response rating, Ragweed (ragweed; [5]): 85 | Plant response rating, Ragweed (ragweed; [6]): 45 | Plant response rating (scale of 0 to 100 where 0 is no effect and 100 is complete control), Soybean (soybean; [7]): 70 | Soybean plant response rating (soybean; 62 g ai/ha, scale 0 to 100): 80 | Plant response rating, Soybean (soybean; [3]): 98 | Plant response rating, Soybean (soybean; [4]): 65 | Plant response rating (scale of 0 to 100 where 0 is no effect and 100 is complete control), Barnyardgrass (barnyardgrass): 5 | Barnyardgrass plant response rating (barnyardgrass): 5 | Plant response rating, Barnyardgrass (barnyardgrass; [3]): 10 | Plant response rating, Barnyardgrass (barnyardgrass; [4]): 5 | Plant response rating (scale of 0 to 100 where 0 is no effect and 100 is complete control), Waterhemp (waterhemp; [7]): 30 | Waterhemp plant response rating (waterhemp; 62 g ai/ha): 55 | Plant response rating, Waterhemp (waterhemp; [3]): 80 | Plant response rating, Waterhemp (waterhemp; [4]): 70 | Plant response rating (scale of 0 to 100 where 0 is no effect and 100 is complete control), Chickweed (chickweed): 65 | Chickweed plant response rating (chickweed): 70 | Plant response rating, Chickweed (chickweed; [3]): 75 | Plant response rating, Chickweed (chickweed; [4]): 75
